We go through seven compounds from ChEMBL document CHEMBL1131330, “d-Fused [1]benzazepines with selective in vitro antitumor activity: synthesis and structure-activity relationships” (1998).

A value given as a limit tells only on which side of the number the result lay.

One experiment concerns TK-10. Description: Compound was tested for antitumor activity against TK-10 renal cancer cell line(molar concentration that inhibits 50% net cell growth). The settings on record: Homo sapiens. The experiment is classed as functional.
In turn, `O=C1Cc2c(-c3ccccc3)cc(-c3cccc(Cl)c3)nc2-c2ccccc2N1` showed a GI50 of 1.48 µM.
`O=C1Cc2c(-c3ccccc3)cc(-c3ccccc3)nc2-c2ccccc2N1` showed a GI50 of 2.45 µM.
Same read-out and setting: with `O=C1Cc2c(-c3ccc(Br)cc3)cc(-c3ccccc3)nc2-c2ccccc2N1` the figure was 0.186 µM; with `SC1=Nc2ccc(Br)cc2-c2nc(-c3ccccc3)cc(-c3ccccc3)c2C1`, 1.23 µM; with `SC1=Nc2ccccc2-c2nc(-c3ccccc3)cc(-c3ccc(Br)cc3)c2C1`, 1.78 µM.
`SC1=Nc2ccccc2-c2nc(-c3cccc(Cl)c3)cc(-c3ccccc3)c2C1` showed a 50% growth inhibitory concentration (GI50) of 0.437 µM.
Compound `O=C1Cc2c(-c3ccccc3)cc(-c3ccccc3)nc2-c2cc(Br)ccc2N1` gave a GI50 of 0.427 µM.

Another experiment relates to 786-0. Description: Compound was tested for antitumor activity against 786-0 renal cancer cell line(molar concentration that inhibits 50% net cell growth). Type of experiment: functional. The settings on record: Homo sapiens.
`O=C1Cc2c(-c3ccccc3)cc(-c3cccc(Cl)c3)nc2-c2ccccc2N1` had a 50% growth inhibitory concentration (GI50) of 0.977 µM.
Turning to `O=C1Cc2c(-c3ccccc3)cc(-c3ccccc3)nc2-c2ccccc2N1`, the GI50 is 4.17 µM.
The same measure, in the same setting: with `O=C1Cc2c(-c3ccc(Br)cc3)cc(-c3ccccc3)nc2-c2ccccc2N1` the figure was 1.62 µM.
As to `SC1=Nc2ccc(Br)cc2-c2nc(-c3ccccc3)cc(-c3ccccc3)c2C1`, the GI50 was 1.17 µM.
Take `SC1=Nc2ccccc2-c2nc(-c3ccccc3)cc(-c3ccc(Br)cc3)c2C1`: the GI50 is 0.631 µM.
As for `SC1=Nc2ccccc2-c2nc(-c3cccc(Cl)c3)cc(-c3ccccc3)c2C1`, it took 0.977 µM to inhibit growth by half (GI50).
For `O=C1Cc2c(-c3ccccc3)cc(-c3ccccc3)nc2-c2cc(Br)ccc2N1`, the GI50 was 0.631 µM.

The test system of a further experiment is TK-10. Description: Compound was tested for antitumor activity against TK-10 renal cancer cell line(molar concentration leading to 50% net cell death). The settings on record: Homo sapiens. The experiment is classed as functional.
`O=C1Cc2c(-c3ccccc3)cc(-c3cccc(Cl)c3)nc2-c2ccccc2N1` gave an LC50 (concentration causing 50% net cell death) of 17.4 µM.
Consider `O=C1Cc2c(-c3ccccc3)cc(-c3ccccc3)nc2-c2ccccc2N1`, for which the LC50 (concentration causing 50% net cell death) was > 100 µM.
In the case of `O=C1Cc2c(-c3ccc(Br)cc3)cc(-c3ccccc3)nc2-c2ccccc2N1`, the LC50 (concentration causing 50% net cell death) was 2.24 µM.
On the same count and under the same terms, to `SC1=Nc2ccc(Br)cc2-c2nc(-c3ccccc3)cc(-c3ccccc3)c2C1` belongs 18.6 µM; to `SC1=Nc2ccccc2-c2nc(-c3ccccc3)cc(-c3ccc(Br)cc3)c2C1`, 7.76 µM.
As to `SC1=Nc2ccccc2-c2nc(-c3cccc(Cl)c3)cc(-c3ccccc3)c2C1`, the LC50 (concentration causing 50% net cell death) is 9.55 µM.
`O=C1Cc2c(-c3ccccc3)cc(-c3ccccc3)nc2-c2cc(Br)ccc2N1` showed an LC50 (concentration causing 50% net cell death) of 9.12 µM.

The subject of the next experiment is 786-0. Description: Compound was tested for antitumor activity against 786-0 renal cancer cell line(molar concentration leading to 50% net cell death). The settings on record: Homo sapiens, read-out: Log LC50 (the source's name) (converted). The experiment is classed as functional.
On to `O=C1Cc2c(-c3ccccc3)cc(-c3cccc(Cl)c3)nc2-c2ccccc2N1`, for which the CC50 was 5.37 µM.
As for `O=C1Cc2c(-c3ccccc3)cc(-c3ccccc3)nc2-c2ccccc2N1`, the CC50 was > 100 µM.
Regarding `O=C1Cc2c(-c3ccc(Br)cc3)cc(-c3ccccc3)nc2-c2ccccc2N1`, the CC50 is 9.55 µM.
As to `SC1=Nc2ccc(Br)cc2-c2nc(-c3ccccc3)cc(-c3ccccc3)c2C1`, the CC50 was 7.08 µM.
Still for that read-out and setting: with `SC1=Nc2ccccc2-c2nc(-c3ccccc3)cc(-c3ccc(Br)cc3)c2C1` the figure was 4.47 µM; with `SC1=Nc2ccccc2-c2nc(-c3cccc(Cl)c3)cc(-c3ccccc3)c2C1`, 4.79 µM.
On the same count and under the same terms, to `O=C1Cc2c(-c3ccccc3)cc(-c3ccccc3)nc2-c2cc(Br)ccc2N1` belongs 4.79 µM.

A further experiment has as its system ACHN. Description: Compound was tested for antitumor activity against ACHN renal cancer cell line(molar concentration that inhibits 50% net cell growth). The experiment is classed as functional. The settings on record: Homo sapiens.
Compound `O=C1Cc2c(-c3ccccc3)cc(-c3cccc(Cl)c3)nc2-c2ccccc2N1` gave a GI50 of 1.15 µM.
The compound `O=C1Cc2c(-c3ccccc3)cc(-c3ccccc3)nc2-c2ccccc2N1` gave a GI50 of 4.07 µM.
As to `O=C1Cc2c(-c3ccc(Br)cc3)cc(-c3ccccc3)nc2-c2ccccc2N1`, the GI50 is 3.98 µM.
`SC1=Nc2ccc(Br)cc2-c2nc(-c3ccccc3)cc(-c3ccccc3)c2C1` showed a GI50 of 0.741 µM.
Still for that read-out and setting: to `SC1=Nc2ccccc2-c2nc(-c3ccccc3)cc(-c3ccc(Br)cc3)c2C1` belongs 0.871 µM; to `SC1=Nc2ccccc2-c2nc(-c3cccc(Cl)c3)cc(-c3ccccc3)c2C1`, 0.617 µM; to `O=C1Cc2c(-c3ccccc3)cc(-c3ccccc3)nc2-c2cc(Br)ccc2N1`, 1.26 µM.

The subject of a further experiment is ACHN. Description: Compound was tested for antitumor activity against ACHN renal cancer cell line(molar concentration leading to 50% net cell death). The experiment is classed as functional. The settings on record: Homo sapiens.
The compound `O=C1Cc2c(-c3ccccc3)cc(-c3cccc(Cl)c3)nc2-c2ccccc2N1` showed an LC50 (50% net cell death) of 24.5 µM.
The compound `O=C1Cc2c(-c3ccccc3)cc(-c3ccccc3)nc2-c2ccccc2N1` gave an LC50 (50% net cell death) of 70.8 µM.
Take `O=C1Cc2c(-c3ccc(Br)cc3)cc(-c3ccccc3)nc2-c2ccccc2N1`: the LC50 (50% net cell death) is 50.1 µM.
`SC1=Nc2ccc(Br)cc2-c2nc(-c3ccccc3)cc(-c3ccccc3)c2C1`: the LC50 (50% net cell death) is 8.51 µM.
In turn, `SC1=Nc2ccccc2-c2nc(-c3ccccc3)cc(-c3ccc(Br)cc3)c2C1` gave an LC50 (50% net cell death) of 5.89 µM.
As for `SC1=Nc2ccccc2-c2nc(-c3cccc(Cl)c3)cc(-c3ccccc3)c2C1`, the LC50 (50% net cell death) is 19.1 µM.
`O=C1Cc2c(-c3ccccc3)cc(-c3ccccc3)nc2-c2cc(Br)ccc2N1` showed an LC50 (50% net cell death) of 15.5 µM.

The term GI50 denotes the concentration giving 50% growth inhibition. Low readings indicate greater sensitivity of the cells, high ones lower sensitivity of the cells.
